Tests used:
Format in all cases: cell-based
NCI-H1299 = assay: MTS assay (cell growth inhibition), NCI-H1299; conditions: NCI-H1299 cells, 72 hours incubation with test compound; concentration not given
Description: (§1) Cells were maintained at 37° C., 5% CO2 in DMEM media supplemented with 1% fetal bovine serum, penicillin/streptomycin and fungizone (Invitrogen). Cells were seeded into 96-well tissue culture plates at 3000 per well and cultured at 37° C. for 18 hours. Test compounds were dissolved and diluted to 300× in DMSO then diluted 1:40 in DMEM. Cells were incubated with test compounds for 72 hours followed by incubation with tetrazolium compound (3-(4,5-dimethylthiazol-2-yl)-5-(3-carboxymethoxyphenyl)-2-(4-sulfophenyl)-2H-tetrazolium, inner salt; MTS) and the electron coupling reagent, phenazine methosulfate (PMS) for 4 hours. […] The ability of compounds to inhibit cell growth in this assay is correlated with the reduction of dehydrogenase enzyme activity found in metabolically active cells. The measurement of the absorbance of the formazan was assessed using an ENVISION™ (Perkin Elmer) microplate reader at 492 nm. The calculated IC50 value is the concentration of the test compound that causes a 50% decrease in the absorbance.

Kato III = assay: MTS assay (cell growth inhibition), Kato III; conditions: Kato III cells, 72 hours incubation with test compound; concentration not given
Description: as §1

MDA-MB = assay: MTS assay (cell growth inhibition), MDA-MB; conditions: MDA-MB cells, 72 hours incubation with test compound; concentration not given
Description: as §1

PC-3 = assay: MTS assay (cell growth inhibition), PC-3; conditions: PC-3 cells, 72 hours incubation with test compound; concentration not given
Description: as §1

PACA-2 = assay: MTS assay (cell growth inhibition), PACA-2; conditions: PACA-2 cells, 72 hours incubation with test compound; concentration not given
Description: as §1

DLD-1 = assay: MTS assay (cell growth inhibition), DLD-1; conditions: DLD-1 cells, 72 hours incubation with test compound; concentration not given
Description: as §1

SMILES | MTS CELL KILL DATA (% INHIBITION) NCI-H1299 (NCI-H1299) | MTS CELL KILL DATA (% INHIBITION) Kato III (Kato III) | MTS CELL KILL DATA (% INHIBITION) MDA-MB (MDA-MB) | MTS CELL KILL DATA (% INHIBITION) PC-3 (PC-3) | MTS CELL KILL DATA (% INHIBITION) PACA-2 (PACA-2) | MTS CELL KILL DATA (% INHIBITION) DLD-1 (DLD-1)
CSc1cccc(-c2n[nH]c3ncc4c(c23)C(=O)N(CCc2ccccc2)C4=O)c1 [Example 159, 1-[3-(methylsulfanyl)phenyl]-7-(2-phenylethyl)pyrazolo[3,4-b]pyrrolo[3,4-d]pyridine-6,8(3H,7H)-dione] | A (A = 80-100% INHIBITION) | A (A = 80-100% INHIBITION) | A (A = 80-100% INHIBITION) | A (A = 80-100% INHIBITION) | A (A = 80-100% INHIBITION) | A (A = 80-100% INHIBITION)
COc1ccc(CN2C(=O)c3cnc4[nH]ncc4c3C2=O)c(Cl)c1 [Example 109, 7-(2-chloro-4-methoxybenzyl)pyrazolo[3,4-b]pyrrolo[3,4-d]pyridine-6,8(3H,7H)-dione] | A (A = 80-100% INHIBITION) | A (A = 80-100% INHIBITION) | A (A = 80-100% INHIBITION) | A (A = 80-100% INHIBITION) | A (A = 80-100% INHIBITION) | A (A = 80-100% INHIBITION)
COc1c(C)cnc(CN2C(=O)c3cnc4[nH]ncc4c3C2=O)c1C [Example 72, 7-[(4-methoxy-3,5-dimethylpyridin-2-yl)methyl]pyrazolo[3,4-b]pyrrolo[3,4-d]pyridine-6,8(3H,7H)-dione] | C (C = <50% INHIBITION) | A (A = 80-100% INHIBITION) | A (A = 80-100% INHIBITION) | A (A = 80-100% INHIBITION) | C (C = <50% INHIBITION) | C (C = <50% INHIBITION)
O=C1c2cnc3[nH]ncc3c2C(=O)N1Cc1c(F)ccc(F)c1Cl [Example 48, 7-(2-chloro-3,6-difluorobenzyl)pyrazolo[3,4-b]pyrrolo[3,4-d]pyridine-6,8(3H,7H)-dione] | C (C = <50% INHIBITION) | B (B = 50-79% INHIBITION) | A (A = 80-100% INHIBITION) | C (C = <50% INHIBITION) | B (B = 50-79% INHIBITION) | C (C = <50% INHIBITION)
CCCCN(CCCC)CCN1C(=O)c2cnc3[nH]ncc3c2C1=O [Example 18, 7-[2-(dibutylamino)ethyl]pyrazolo[3,4-b]pyrrolo[3,4-d]pyridine-6,8(3H,7H)-dione] | C (C = <50% INHIBITION) | C (C = <50% INHIBITION) | A (A = 80-100% INHIBITION) | A (A = 80-100% INHIBITION) | C (C = <50% INHIBITION) | C (C = <50% INHIBITION)
O=C1c2cnc3[nH]nc(-c4cc5ccccc5o4)c3c2C(=O)N1CCc1ccccc1 [Example 158, 1-(1-benzofuran-2-yl)-7-(2-phenylethyl)pyrazolo[3,4-b]pyrrolo[3,4-d]pyridine-6,8(3H,7H)-dione] | A (A = 80-100% INHIBITION) | A (A = 80-100% INHIBITION) | B (B = 50-79% INHIBITION) | B (B = 50-79% INHIBITION) | C (C = <50% INHIBITION) | B (B = 50-79% INHIBITION)
O=C1c2cnc3[nH]ncc3c2C(=O)N1Cc1cccc(Br)c1 [Example 104, 7-(3-bromobenzyl)pyrazolo[3,4-b]pyrrolo[3,4-d]pyridine-6,8(3H ,7H)-dione] | A (A = 80-100% INHIBITION) | A (A = 80-100% INHIBITION) | A (A = 80-100% INHIBITION) | A (A = 80-100% INHIBITION) | A (A = 80-100% INHIBITION) | A (A = 80-100% INHIBITION)
CC(C)(C)c1ccc(-c2n[nH]c3ncc4c(c23)C(=O)N(CCc2ccccc2)C4=O)cc1 [Example 166, 1-(4-tert-butylphenyl)-7-(2-phenylethyl)pyrazolo[3,4-b]pyrrolo[3,4-d]pyridine-6,8(3H,7H)-dione] | C (C = <50% INHIBITION) | C (C = <50% INHIBITION) | A (A = 80-100% INHIBITION) | C (C = <50% INHIBITION) | B (B = 50-79% INHIBITION) | A (A = 80-100% INHIBITION)
CCCC(CCC)CN1C(=O)c2cnc3[nH]ncc3c2C1=O [Example 63, 7-(2-propylpentyl)pyrazolo[3,4-b]pyrrolo[3,4-d]pyridine-6,8(3H,7H)-dione] | C (C = <50% INHIBITION) | C (C = <50% INHIBITION) | A (A = 80-100% INHIBITION) | A (A = 80-100% INHIBITION) | A (A = 80-100% INHIBITION) | C (C = <50% INHIBITION)
O=C1c2cnc3[nH]nc(-c4cncnc4)c3c2C(=O)N1CCc1ccccc1 [Example 151, 7-(2-phenylethyl)-1-pyrimidin-5-ylpyrazolo[3,4-b]pyrrolo[3,4-d]pyridine-6,8(3H,7H)-dione] | C (C = <50% INHIBITION) | A (A = 80-100% INHIBITION) | C (C = <50% INHIBITION) | B (B = 50-79% INHIBITION) | A (A = 80-100% INHIBITION) | A (A = 80-100% INHIBITION)
O=C1NCCN1CCN1C(=O)c2cnc3[nH]ncc3c2C1=O [Example 6, 7-[2-(2-oxoimidazolidin-1-yl)ethyl]pyrazolo[3,4-b]pyrrolo[3,4-d]pyridine-6,8(3H,7H)-dione] | A (A = 80-100% INHIBITION) | A (A = 80-100% INHIBITION) | A (A = 80-100% INHIBITION) | A (A = 80-100% INHIBITION) | C (C = <50% INHIBITION) | C (C = <50% INHIBITION)
O=C1c2cnc3[nH]ncc3c2C(=O)N1CCc1cccc2ccccc12 [Example 77, 7-[2-(1-naphthyl)ethyl]pyrazolo[3,4-b]pyrrolo[3,4-d]pyridine-6,8(3H,7H)-dione] | A (A = 80-100% INHIBITION) | A (A = 80-100% INHIBITION) | A (A = 80-100% INHIBITION) | A (A = 80-100% INHIBITION) | A (A = 80-100% INHIBITION) | A (A = 80-100% INHIBITION)
